Among the data in patent US20220289698A1, “INHIBITORS OF HUMAN ATGL” (Karl-Franzens-Universität Graz, priority 2019, published 2022) are IC50 and inhibition values, retold here.

Read-outs that look alike come from different tables or passages of the source.

In one assay the target is T1, human ATGL (Homo sapiens, UniProt Q96AD5).
T1 construct: made in house; host or cells: Expi cells (lysate, not purified)
T1 sequence (Q96AD5 1-504): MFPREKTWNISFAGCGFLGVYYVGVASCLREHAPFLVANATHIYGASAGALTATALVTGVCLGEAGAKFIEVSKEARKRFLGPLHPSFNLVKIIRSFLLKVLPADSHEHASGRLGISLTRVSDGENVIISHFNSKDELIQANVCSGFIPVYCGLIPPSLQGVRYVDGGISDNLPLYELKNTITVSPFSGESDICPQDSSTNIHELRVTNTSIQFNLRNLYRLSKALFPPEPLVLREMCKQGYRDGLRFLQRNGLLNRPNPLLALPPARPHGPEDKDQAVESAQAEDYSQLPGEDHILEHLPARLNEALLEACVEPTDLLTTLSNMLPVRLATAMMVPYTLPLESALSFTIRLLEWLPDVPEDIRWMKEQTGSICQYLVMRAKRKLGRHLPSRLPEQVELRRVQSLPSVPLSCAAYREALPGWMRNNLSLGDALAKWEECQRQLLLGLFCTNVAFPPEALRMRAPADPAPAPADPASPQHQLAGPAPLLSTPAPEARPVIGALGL
Description: TG hydrolase activity, Expi cell lysates expressing human ATGL + CGI-58, radiolabelled triolein. The format is biochemical. Particulars: Example 237; read-out: Inhibition of human ATGL − IC50. The procedure:
(§1) Triglyceride (TG) hydrolase activity was measured as previously described (Schweiger M et al., Methods in Enzymology, 2014, 538:171-93). In brief, TG hydrolase activity was determined by adding recombinant purified CGI-58 to Expi cell lysates expressing human ATGL. For determination of cross-species reactivity Expi lysates expressing ATGL from different model organisms (e.g. mouse, rat, rhesus monkey, goat, etc.) were used. Samples were incubated with DMSO (carrier) or increasing concentrations of ATGL inhibitors dissolved in DMSO. TG substrate was prepared by emulsifying 330 μM radiolabelled triolein (40,000 c.p.m./nmol) and 45 μM phosphatidylcholine/phosphatidylinositol (3:1) in 100 mM potassium phosphate buffer (pH 7.0) by sonication and adjusting to 5% essentially FA-free BSA. TG substrate was added to the reaction mixture and incubated for 1 h at 37° C. in the water bath. The reaction was terminated by adding methanol/chloroform/heptane (10:9:7) and 0.1 M potassium carbonate with 0.1 M boric acid (pH 10.5). After centrifugation at 800 g for 15 min the radioactivity in the upper phase was determined by liquid scintillation counting and the rate of FA hydrolysis was calculated. IC50 values were determined as inhibitor concentration capable of inhibiting TG hydrolase activity by 50% as compared to DMSO control. Samples were measured as duplicates. The determination of IC50 values for human ATGL is illustrated in FIG. 1.

The next assay addresses T2, murine ATGL (Mus musculus, UniProt Q8BJ56).
T2 construct: made in house; host or cells: Expi cells (lysate)
T2 sequence (Q8BJ56 1-486): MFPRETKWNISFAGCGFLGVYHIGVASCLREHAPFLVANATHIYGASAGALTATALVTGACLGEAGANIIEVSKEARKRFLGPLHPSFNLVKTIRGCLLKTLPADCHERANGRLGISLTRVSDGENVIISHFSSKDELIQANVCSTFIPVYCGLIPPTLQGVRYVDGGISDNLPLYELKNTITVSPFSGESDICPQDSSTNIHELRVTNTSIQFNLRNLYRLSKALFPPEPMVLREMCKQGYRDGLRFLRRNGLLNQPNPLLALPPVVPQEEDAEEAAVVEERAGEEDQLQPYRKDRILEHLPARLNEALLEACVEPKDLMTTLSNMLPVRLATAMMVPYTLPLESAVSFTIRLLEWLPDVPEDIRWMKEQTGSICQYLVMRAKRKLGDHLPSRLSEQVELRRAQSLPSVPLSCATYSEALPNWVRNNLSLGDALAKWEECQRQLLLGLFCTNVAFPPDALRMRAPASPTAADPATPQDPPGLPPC
Description: TG hydrolase activity, Expi lysates expressing mouse ATGL + CGI-58, radiolabelled triolein. The class given is biochemical. The procedure: as §1
Lysates from Expi cells overexpressing ATGL from mouse (Mus musculus) were incubated with recombinant purified ATGL co-activator CGI-58 and ATGL inhibitors at 50 μM. Subsequently, substrate containing radiolabeled triolein was added and liberated FA were extracted and quantified by liquid scintillation. Inhibitors were dissolved in DMSO which was used as control. Samples were measured in triplicates.

Where [1] appears, read: 50 μM compound, Example 237, read-out: Inhibition of murine ATGL at 50 μM − mean [%].

In the case of `CCOC(=O)c1csc(-c2ccc(SC)cc2)n1` [Example 99, Ethyl 2-(4-(methylthio)phenyl)thiazole-4-carboxylate], at human ATGL, the IC50 was 12 µM. The inhibition at 50 µM at murine ATGL (setting [1]) is 37.3%.

`CCOC(=O)c1csc(-c2ccc(SC(C)C)cc2)n1` [Example 100]: the IC50 at human ATGL worked out at 20 µM. For the same compound, at murine ATGL (setting [1]), the inhibition at 50 µM is 0%.

For the compound `CCOC(=O)c1csc(-c2ccc(OC)cc2)n1` [Example 102, Ethyl 2-(4-methoxyphenyl)thiazole-4-carboxylate], the IC50 on human ATGL amounted to 6 µM. At murine ATGL (setting [1]), the inhibition at 50 µM was 21.5%.

As to `CCOC(=O)c1csc(-c2ccc(N(C)C)cc2)n1` [Example 103, Ethyl 2-(4-(dimethylamino)phenyl)thiazole-4-carboxylate], at human ATGL, the IC50 was 25 µM. The inhibition at 50 µM at murine ATGL (setting [1]) is 33.9%.

As to `CCOC(=O)c1csc(-c2ccc(OCC(C)C)cc2)n1` [Example 104, Ethyl 2-(4-isobutoxyphenyl)thiazole-4-carboxylate], the IC50 on human ATGL stood at 12 µM. Also, the inhibition at 50 µM at murine ATGL (setting [1]) is 0%.

As to `CCOC(=O)c1csc(-c2ccc(OC(C)C)cc2)n1` [Example 106, Ethyl 2-(4-isopropoxyphenyl)thiazole-4-carboxylate], the IC50 on human ATGL worked out at 5 µM. Besides, the inhibition at 50 µM on murine ATGL (setting [1]) was 21.6%.

On to `CCOC(=O)c1csc(-c2ccc(OCC(F)(F)F)cc2)n1` [Example 108, Ethyl 2-(4-(2,2,2-trifluoroethoxy)phenyl)thiazole-4-carboxylate], for which the IC50 at human ATGL was 5 µM. The inhibition at 50 µM on murine ATGL (setting [1]) was 8%.

As for `CCCCOc1ccc(-c2nc(C(=O)OCC)cs2)cc1` [Example 109, Ethyl 2-(4-butoxyphenyl)thiazole-4-carboxylate], the IC50 at human ATGL was determined as 10 µM. In addition, the inhibition at 50 µM at murine ATGL (setting [1]) turned out to be 0%.

On to `CCCCCOc1ccc(-c2nc(C(=O)OCC)cs2)cc1` [Example 110, Ethyl 2-(4-(pentyloxy)phenyl)thiazole-4-carboxylate], for which, on human ATGL, the IC50 was 25 µM. Also, the inhibition at 50 µM on murine ATGL (setting [1]) worked out at 0%.

Consider `CCCCCCOc1ccc(-c2nc(C(=O)OCC)cs2)cc1` [Example 111, Ethyl 2-(4-(hexyloxy)phenyl)thiazole-4-carboxylate], for which the 50% inhibitory concentration (IC50) on human ATGL came to 25 µM. On murine ATGL (setting [1]), the inhibition at 50 µM came to 0%.

Regarding `CCOC(=O)c1csc(-c2ccc(OC(C)CC)cc2)n1` (stereo not shown) [Example 112, Ethyl 2-(4-(sec-butoxy)phenyl)thiazole-4-carboxylate], at human ATGL, the IC50 is 10 µM. Further, the inhibition at 50 µM on murine ATGL (setting [1]) was found to be 1.3%.

In the case of `C=CCOc1ccc(-c2nc(C(=O)OCC)cs2)cc1` [Example 113, Ethyl 2-(4-(allyloxy)phenyl)thiazole-4-carboxylate], at human ATGL, the IC50 turned out to be 6 µM. For the same compound, the inhibition at 50 µM on murine ATGL (setting [1]) worked out at 24.6%.

Take `CCOc1ccc(-c2nc(C(=O)OC(C)CC)cs2)cc1` (stereo not shown) [Example 114, sec-Butyl 2-(4-ethoxyphenyl)thiazole-4-carboxylate]: the IC50 at human ATGL is 3 µM. Further, the inhibition at 50 µM at murine ATGL (setting [1]) turned out to be 7%.

`CCOc1ccc(-c2nc(C(=O)OCC(F)(F)F)cs2)cc1` [Example 116, 2,2,2-Trifluoroethyl 2-(4-ethoxyphenyl)thiazole-4-carboxylate]: the IC50 on human ATGL stood at 12 µM. For the same compound, the inhibition at 50 µM at murine ATGL (setting [1]) was determined as 0%.

As to `CCCC(C)OC(=O)c1csc(-c2ccc(OCC)cc2)n1` (stereo not shown) [Example 117, Pentan-2-yl 2-(4-ethoxyphenyl)thiazole-4-carboxylate], the 50% inhibitory concentration (IC50) at human ATGL was 3 µM. The inhibition at 50 µM at murine ATGL (setting [1]) stood at 7.4%.

In the case of `CCOc1ccc(-c2nc(C(=O)OC(C)(C)CC)cs2)cc1` [Example 118, tert-Pentyl 2-(4-ethoxyphenyl)thiazole-4-carboxylate], the IC50 at human ATGL stood at 25 µM. Moreover, at murine ATGL (setting [1]), the inhibition at 50 µM was found to be 0%.

Take `C/C=C/COC(=O)c1csc(-c2ccc(OCC)cc2)n1` [Example 121, (E)-but-2-en-1-yl 2-(4-ethoxyphenyl)thiazole-4-carboxylate]: on human ATGL, the IC50 was 12 µM. In addition, the inhibition at 50 µM on murine ATGL (setting [1]) worked out at 41.2%.

As for `CCOc1ccc(-c2nc(C(=O)OC)cs2)cc1` [Example 122, Methyl 2-(4-ethoxyphenyl) thiazole-4-carboxylate], at human ATGL, the IC50 came to 8 µM. The inhibition at 50 µM on murine ATGL (setting [1]) worked out at 2.1%.

`CCOc1ccc(-c2nc(C(=O)OC(C)C)cs2)cc1` [Example 123, Isopropyl 2-(4-ethoxyphenyl) thiazole-4-carboxylate]: the IC50 at human ATGL is 3 µM. For the same compound, the inhibition at 50 µM on murine ATGL (setting [1]) turned out to be 10.6%; on murine ATGL (50 μM, overview table, read-out: mouse ATGL inhibition [% inhibition at 50 μM]) it was 20%.

In the case of `CCOC(=O)c1nc(-c2ccc(OCC)cc2)sc1C` [Example 124, Ethyl 2-(4-ethoxyphenyl)-5-methylthiazole-4-carboxylate], the IC50 at human ATGL was 17 µM. The inhibition at 50 µM on murine ATGL (setting [1]) is 33.7%.

For the compound `CCOC(=O)c1nc(-c2ccc(OCC)cc2)sc1Cl` [Example 125, Ethyl 5-chloro-2-(4-ethoxyphenyl)thiazole-4-carboxylate], at human ATGL, the IC50 is 25 µM. Besides, on murine ATGL (setting [1]), the inhibition at 50 µM stood at 11.1%.

For `CCOC(=O)c1nc(-c2ccc(OCC)cc2)sc1OC` [Example 126, Ethyl 2-(4-ethoxyphenyl)-5-methoxythiazole-4-carboxylate], the IC50 at human ATGL is 5 µM. Further, at murine ATGL (setting [1]), the inhibition at 50 µM amounted to 2.2%.

Take `CCOc1ccc(-c2nc(C(=O)OC3CCCC3)cs2)cc1` [Example 127, Cyclopentyl 2-(4-ethoxyphenyl)thiazole-4-carboxylate]: at human ATGL, the IC50 is 5 µM. For the same compound, on murine ATGL (setting [1]), the inhibition at 50 µM turned out to be 0%.

Consider `CCOc1ccc(-c2nc(C(=O)OC3CCC3)cs2)cc1` [Example 129, Cyclobutyl 2-(4-ethoxyphenyl)thiazole-4-carboxylate], for which, at human ATGL, the 50% inhibitory concentration (IC50) was determined as 6 µM. On murine ATGL (setting [1]), the inhibition at 50 µM was found to be 5.1%.

With `CCOc1ccc(-c2nc(C(=O)OC3CCOC3)cs2)cc1` (stereo not shown) [Example 130, Tetrahydrofuran-3-yl 2-(4-ethoxyphenyl)thiazole-4-carboxylate], the IC50 on human ATGL was 3 µM. Besides, the inhibition at 50 µM at murine ATGL (setting [1]) turned out to be 13.9%.

For `CCOc1ccc(-c2nc(C(=O)OC3CCCCC3)cs2)cc1` [Example 133, Cyclohexyl 2-(4-ethoxyphenyl)thiazole-4-carboxylate], at human ATGL, the half-maximal inhibitory concentration (IC50) worked out at 25 µM. Also, at murine ATGL (setting [1]), the inhibition at 50 µM worked out at 0%.

For the compound `CCOc1ccc(-c2nc(C(=O)OC(CF)CF)cs2)cc1` [Example 135, 1,3-Difluoropropan-2-yl 2-(4-ethoxyphenyl)thiazole-4-carboxylate], at human ATGL, the IC50 stood at 3 µM. Also, at murine ATGL (setting [1]), the inhibition at 50 µM came to 5.8%.

With `CCOc1ccc(-c2nc(C(=O)OCC3CC3)cs2)cc1` [Example 136, Cyclopropylmethyl 2-(4-ethoxyphenyl)thiazole-4-carboxylate], the half-maximal inhibitory concentration (IC50) at human ATGL is 20 µM. For the same compound, the inhibition at 50 µM on murine ATGL (setting [1]) is 9.8%.

Consider `CCOc1ccc(-c2nc(C(=O)O[C@H]3CCC[C@H]3C)cs2)cc1` [Example 139, (1S,2R)-2-Methylcyclopentyl 2-(4-ethoxyphenyl)thiazole-4-carboxylate], for which the IC50 at human ATGL came to 15 µM. Further, the inhibition at 50 µM on murine ATGL (setting [1]) worked out at 0%.

Turning to `CCOc1ccc(-c2nc(C(=O)OCC=C(C)C)cs2)cc1` [Example 143, 3-Methylbut-2-en-1-yl 2-(4-ethoxyphenyl)thiazole-4-carboxylate], on human ATGL, the IC50 is 20 µM. Moreover, at murine ATGL (setting [1]), the inhibition at 50 µM came out at 16.8%.
